Square brackets hold non-standard residues; d marks the D form. Peptide text beside a SMILES is read from it. Gly(N-CH2CH2-imidazol-4-yl) = O=C(O)CNCCc1c[nH]cn1; Nspe = C[C@H](NCC(=O)O)c1ccccc1; Nlys = NCCCCNCC(=O)O
Key:
B. subtilis (ATCC 6633) = assay type: cell-based; conditions: ATCC 6633
Procedure, shortened: (§1)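 MICs by broth microdilution per CLSI M7-A6 in cation-adjusted Mueller-Hinton broth, using 2:1 serial dilutions of peptoid and a bacterial inoculum of 1×10^6 CFU/mL. Values reproducible over three experiments, each with two parallel trials.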

E. coli (ATCC 35218) = assay type: cell-based; conditions: ATCC 35218
Procedure, shortened: as §1

E. coli JM109 = assay type: cell-based
From the text: (§2) An initial set of 15 ampetoid analogs was synthesized to determine whether peptoids are affected by structural and sequence modifications in a manner consistent with AMP activities. The designs for ampetoids in this library were derived from two antibacterial and selective amphipathic dodecamers, 1 and 2. Peptoid 1 [H-(Nlys-Nspe-Nspe)4—NH2] is composed of 2/3 Nspe, the peptoid analog of phenylalanine, and 1/3 Nlys, the peptoid analog of lysine (see FIG. 1 for the structures of representative peptoid monomers and corresponding N-substituents). Peptoid 2 [H-(Nlys-Nssb-Nspe)4—NH2] contains 1/3 isoleucine-like Nssb monomers in place of Nspe. The variant sequences were designed to effect changes in chirality, length, hydrophobicity, charge, and amphipathicity. All of these compounds were tested for antibacterial activity against representative BSL1 Gram-negative (E. coli JM109) and Gram-positive (B. subtilis BR151) bacterial strains. As an initial measure of selectivity, the lytic activity of the peptoids was determined against human erythrocytes. Table 1 summarizes the sequences synthesized, the solvent composition at RP-HPLC elution as a relative measure of molecular hydrophobicity, and antibacterial and hemolytic activities.
(§3) Antibacterial assays. MICs were determined according to CLSI M7-A6 protocols in a 96-well microtiter plate. In test wells, 50 μL bacterial inoculum (5×10^5 CFU/ml) in Mueller-Hinton broth (MHB) was added to 50 μL peptoid solution in MHB (prepared by 1:2 serial dilutions). Positive controls contained 50 μL inoculum and 50 μL MHB without peptoid. […] MIC values reported were reproducible between three independent experimental replicates, each consisting of two parallel trials. Broad-spectrum antimicrobial susceptibility testing was performed against BSL2 pathogens by Nova Biologicals, Inc. (Conroe, Tex.).

[1] = system: A549 lung epithelial cells; test: MTS assay, metabolic inhibition
Method: The biocompatibility of selected oligomers with A549 lung epithelial cells was evaluated using the MTS [3-(4,5-dimethylthiazol-2-yl)-5-(3-carboxymethoxyphenyl)-2-(4-sulfophenyl)-2H-tetrazolium] assay.
MTS Assays. A549 carcinoma-derived lung epithelial cells (ATTC CCL-185) were cultured in Ham's F12K media (ATTC, Manassas, Va.). A peptoid solution plate (100 μL/well) was prepared by serial dilution of aqueous peptoid stocks in media. Peptoid solutions were transferred onto a 96-well plate of day-old cell monolayers containing 100 μL/well media with ˜5000 cells/well. MTS reagent (Promega Corporation, Madison, Wis.) (40 μL/well) was added to each well and the plate was incubated at 37° C. for 3 h, after which absorbance at 490 nm was determined. Percent inhibition was determined as [1−(A−Atest blank)/(Acontrol−Ablank)]×100, where A is the absorbance of the test well and Acontrol the average absorbance of wells with cells exposed to media and MTS (no peptoid). Atest blank (media, MTS, and peptoid) and Ablank (media and MTS) were background absorbances measured in the absence of cells. The average of six replicates are reported, and error bars show one standard deviation.

[2] = system: Staphyloccus aureus (ATCC #25923); test: Murine intraperitoneal infection model; assay type: in vivo; conditions: mouse, 4 mg/kg I.P.; eleven mice treated with 1-Nhis6,12
Method: Using a murine peritoneal injection mouse model, the ability of peptoids to treat infection was evaluated in vivo. The results from three separate studies of peptoid 1 and two of peptoid 1-Nhis6,12 against saline treated controls are shown in FIG. 7. The horizontal line represents the geometric mean of each population.
Murine intraperitoneal infection model. Bacteria was prepared by inoculating 5 mL of MHB with a single colony of Staphyloccus aureus (ATCC #25923) from a freshly streaked plate and grown overnight at 37 C. The following morning, the bacteria was subcultured by diluting 1/3 in MHB and grown for approximately 1.5 hours. The bacteria were then diluted 10-fold in a 5% mucin in PBS solution and thoroughly mixed. A sample was reserved to later determine the amount of bacteria the mice received.
Mice were weighed, marked, and injected I.P. with 200 uL of S. aureus inoculum. Four hours post infection, mice were treated I.P. with 4 mg/kg peptoid (˜100 ug per mouse). The infection is allowed to proceed overnight. Mice were euthanized by CO2 asphyxiation after 24 hours, and the peritoneal cavity was exposed and lavaged with 5 mL PBS. The lavage was mixed and reserved on ice until plating. […] Colonies were counted the following day, and the CFU/ml of each sample was calculated. […]

human erythrocytes = test: Hemolysis assay; assay type: cell-based
Procedure, shortened: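 Human erythrocytes from fresh heparinised blood, 20 vol % in PBS pH 7.4, mixed 1:1 with 2-fold serial peptoid dilutions; PBS as 0% and 0.2 vol % Triton X-100 as 100% hemolysis. Incubated 1 h at 37 °C, diluted, centrifuged 1200 g for 15 min; supernatant A350 read.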

B. subtilis BR151 = assay type: cell-based; conditions: Table 1
From the text: as §2, §3

C[C@@H](c1ccccc1)N(CC(=O)N(CCc1cnc[nH]1)CC(=O)N(CCCCN)CC(=O)N(CC(=O)N(CC(=O)N(CCCCN)CC(=O)N(CC(=O)N(CCc1cnc[nH]1)CC(N)=O)[C@@H](C)c1ccccc1)[C@@H](C)c1ccccc1)[C@@H](C)c1ccccc1)C(=O)CN(CCCCN)C(=O)CN(C(=O)CN(C(=O)CNCCCCN)[C@@H](C)c1ccccc1)[C@@H](C)c1ccccc1 [1-Nhis6,12] (H-[Nlys][Nspe][Nspe][Nlys][Nspe][Gly(N-CH2CH2-imidazol-4-yl)][Nlys][Nspe][Nspe][Nlys][Nspe][Gly(N-CH2CH2-imidazol-4-yl)]-NH2)
B. subtilis MIC (B. subtilis (ATCC 6633)): 1.6 µM
E. coli MIC (E. coli (ATCC 35218)): >50 µM
MICs (E. coli JM109; JM109): < 7 µM
ID10 relative to that of pexiganan [1]: 20 times
mice that died prematurely during the exposure period [2]: eight
HD10 (human erythrocytes): >110/>110 μM
HD50 (human erythrocytes): >110/>110 μM
HD10 (10% hemolytic dose) (human erythrocytes; red cells of human, 1 h): >110/>110 μM
HD50 (50% hemolytic dose) (human erythrocytes; red cells of human, 1 h): >110/>110 μM

C[C@@H](c1ccccc1)N(CC(N)=O)C(=O)CN(C(=O)CN(CCCCN)C(=O)CN(C(=O)CN(C(=O)CN(CCCCN)C(=O)CN(C(=O)CN(C(=O)CN(CCCCN)C(=O)CN(C(=O)CN(C(=O)CN(CCCCN)C(=O)CN(C(=O)CN(C(=O)CNCCCCN)[C@@H](C)c1ccccc1)[C@@H](C)c1ccccc1)[C@@H](C)c1ccccc1)[C@@H](C)c1ccccc1)[C@@H](C)c1ccccc1)[C@@H](C)c1ccccc1)[C@@H](C)c1ccccc1)[C@@H](C)c1ccccc1)[C@@H](C)c1ccccc1 [115 mer, H-(Nlys-Nspe-Nspe)5-NH2]
cytotoxicity (in words) ([1]; A549 cells, MTS assay, FIG. 2): no worse than pexiganan
HD10 (10% hemolytic dose) (human erythrocytes; red cells of human, 1 h): 3 µM
HD50 (50% hemolytic dose) (human erythrocytes; red cells of human, 1 h): 19 µM

C[C@H](c1ccccc1)N(CC(N)=O)C(=O)CN(C(=O)CN(CCCCN)C(=O)CN(C(=O)CN(C(=O)CN(CCCCN)C(=O)CN(C(=O)CN(C(=O)CN(CCCCN)C(=O)CN(C(=O)CN(C(=O)CNCCCCN)[C@H](C)c1ccccc1)[C@H](C)c1ccccc1)[C@H](C)c1ccccc1)[C@H](C)c1ccccc1)[C@H](C)c1ccccc1)[C@H](C)c1ccccc1)[C@H](C)c1ccccc1 [1enantiomer]
B. subtilis MIC (B. subtilis BR151): 0.88 µM
E. coli MIC (E. coli JM109; Table 1, E. coli JM109): 3.5 µM
HD10 (10% hemolytic dose) (human erythrocytes; Table 1, human erythrocytes): 16 µM
HD50 (50% hemolytic dose) (human erythrocytes; Table 1, human erythrocytes): 86 µM
